Measured values taken from US8961986B2, “Peptide composition” (Apitope Technology (Bristol) Limited, priority 2000, dated 2015).
Entries after “also recorded” stand apart in the source; their conditions may differ.

What was measured:
[1] = tested on: fixed Mgar (HLA-DR2+ve) APC presenting to T cells from DR2:MBP 82-100 transgenic mouse; assay: Antigen-presentation assay using an APIPS (fixed APC) with T cells from DR2:MBP82-100 transgenic mouse; format: cell-based; conditions: live or p-formaldehyde-fixed Mgar cells, 72 h
Method: Presentation of peptides to T cells isolated from DR2:MBP82-100 transgenic mouse was essentially as described above except APC were plated at 5×10^5 cells per well, T cells were plated at 1×10^5 cells per well, and incubation was allowed to proceed for 72 h prior to the addition of [^3H]-thymidine.
(§1) For any given epitope, there may exist one or more apitopes, capable of being presented to APC without further processing. The presence of apitopes within two regions of MBP is investigated by incubating live or p-formaldehyde-fixed Mgar (HLA-DR2+ve) cells are incubated with overlapping peptides in serum from MBP regions 77-100 (FIG. 12) and 125-148 (FIG. 13) or in serum alone. T cells were added and after 72 h (FIG. 12) or after 48 h (FIG. 13) the T cell proliferative response was measured by ^3H-thymidine uptake. For MBP 77-100, the T cells are isolated from a DR2:MBP 82-100 transgenic mouse, whereas for MBP 130-144 the T cell clone MS17:A3 is used.

[2] = tested on: fixed Mgar (HLA-DR2+ve) APC presenting to T cell clones; assay: Antigen-presentation assay using an APIPS (fixed APC) with human T cell clones; format: cell-based; conditions: for apitope within MBP region 125-148: live or p-formaldehyde-fixed Mgar cells, T cell clone MS17:A3, 48 h; for presentation by fixed APC without further processing (apitope): fixed vs live APC, T cell clone proliferation
Method: Presentation of the peptides to T cell clones is measured by proliferation. APC are fixed in 0.5% paraformaldehyde and plated at 1×10^5 cells per well of a 96-well tissue culture plate. T cells clones are plated at 2×10^4 cells per well in the presence of varying concentrations of peptide. After incubation for 48 h at 37° C., proliferation is measured by [^3H] thymidine incorporation over 16-20 h. Results are compared with the ability of T cells to respond to the epitope presented by live APC.
In order to investigate whether various MBP peptides are apitopes, their capacity to be presented to T-cells by fixed APC is investigated. Live or […] Mgar (HLA-DR2+ve) cells are pre-pulsed with the peptide in serum, or serum alone for 3.5 hours. Excess peptide is then removed from cells and the appropriate T cell clone added. The T cell proliferative response is measured by ^3H-thymidine uptake.
as §1

[3] = tested on: HLA-DQ6; assay: Antigen presentation assay, HLA-DQ6 transfected L-cells; format: cell-based, human
From the text: MBP peptides 30-44, 130-144 and 139-153 were synthesized using L-amino acids and standard F-moc chemistry on an Abimed AMS 422 multiple peptide synthesiser.
L-cells transfected with either HLA-DQ6, HLA-DR2a or HLA-DR2b, or Mgar cells (EACC, Porton Down, UK) which express HLA-DQ, DP and DR were used as APCs.
T-cell clones MS 49:D3 and MS17:A2 were generated from MS patients and clone N5:19 was generated from a normal individual. All three clones were DR2 positive.
Antigen presenting cells were incubated with the various concentrations of peptide and the appropriate T-cells. Proliferation, and therefore activation, of the T-cells was measured by [^3H]-Thymidine incorporation, and expressed as the stimulation index (SI=corrected counts per minute (ccpm) culture containing peptide/ccpm culture without peptide).

[4] = tested on: MBP-specific T cell clones; assay: T cell clone (TCC) proliferation assay, fine mapping of MBP epitopes; format: cell-based, human; conditions: TCC from MS patients and healthy individuals; proliferative response
Method: MBP-specific T cell lines (TCL) are generated from 8 MS patients and 2 healthy control donors. PBMC from each subject are separated as described above and plated out at 1×10^6 cells/ml in 6-well plates in the presence of MBP (50 μg/ml); a portion of PBMC from each subject is regularly frozen and stored for subsequent restimulations. Seven days later the cells are fed with fresh medium containing 2% IL-2 (Lymphocult-HT; Biotest LTD., Birmingham, UK), and on day 12 of culture all cells are restimulated with antigen, IL-2 and irradiated (2500 Rad) autologous PBMC as a source of antigen presenting cells (APC), at a cell ratio of 1T cell:5 APC. Cells are expanded in IL-2 every 3-4 days, and on day 14 are restimulated with antigen, IL-2 and PBMC, as described above. On the day of the first restimulation cells are examined for specific proliferation to MBP. Briefly, 2×10^4 T cells and 1×10^5 irradiated autologous PBMC are cultured in triplicate, in 96-well round-bottom plates, in the presence of MBP. Cells are cultured for 2 days and pulsed with (^3H)-Thymidine at 0.4 μCi/well during the last 18 hours of the culture. Cells are then harvested as described above, and a TCL is considered to be MBP-specific with a δcpm>1000 and a SI>3.
Following 3 restimulation/expansion cycles TCL are cloned using PHA (Sigma, Poole, Dorset, UK)) in the presence of autologous irradiated PBMC as APC. T cells are plated under limiting dilution conditions at 0.1 cell/well, 0.3 cell/well and 1 cell/well and cultured in Terasaki plates (Nunc International, Costar) with 1×10^4 irradiated PBMC, 5 μg/ml PHA, and 2% IL-2. After 10-12 days, growth-positive wells are expanded onto 96-well round-bottom plates, using 1×10^5 irradiated PBMC, 5 μg/ml PHA and IL-2. Three days later wells are fed with fresh medium containing IL-2, and on day 7 the clones are expanded onto 48-well plates using 5×10^5 irradiated PBMC, PHA and IL-2; at this point clones are tested in proliferation assays for specific responses to MBP. MBP-specific clones are expanded a week later onto 24-well plates, using 1×10^6 irradiated PBMC with PHA or Dynabeads (Dynal, UK) and IL-2. The clones are maintained in 24-well plates using a 7-10 day restimulation/expansion cycle, essentially as described above. The ability of T cell clones (TCC) to recognize the panel of MBP peptides is tested by proliferation assays, as described above.
TCC are generated from 8 MS patients and 2 healthy individuals, and used to clarify the fine specificity of the peptide regions identified in the kinetic response assay. The specificity of each TCC is tested by its proliferative response to the panel of 15-mer peptides. Clone SD:A7 recognised region 1-24, and within this region this TCC responded to a.a. 5-19. Region 30-54 is recognised by 4 clones (MS49:D3, MS49:C8, MS49:A8, MS49:B6) and the epitope within this region is 30-44. […] Five clones (MS43:A7, MS41:B6, MS41:A2, MS41:C6, N5:8) recognize a.a. 83-99 which is contained in region 75-99. One patient produced TCC specific for a.a. 110-124 (MS60:A2, MS60:B3), contained within the 105-129 pool, and another TCC from the same patient is specific to 130-144 (MS60:E1), found within the 120-144 region. Five individuals produce clones which recognize epitopes within the region 135-159: MS60:F7, MS60:D1, MS59:F1 and N5:19 recognizes a.a. 140-154; MS57:A1 is specific to 140-149, and TCC MS17:A3 responds to sequence 130-144. […] Lastly, region 150-170 is recognized by 2 clones specific to a.a. 156-169.

[5] = tested on: draining lymph node cells; assay: Tolerance experiments with 89-101 and 87-96: lymph node cell recall proliferation; format: in vivo, Mice
Method: In order to test this possibility tolerance experiments are performed with the 89-101 and 87-96 peptides (FIGS. 15a and b).
Mice received 200 μg of peptide in PBS or PBS alone intraperitoneally on days −8, −6 and −4 prior to 100 μg of peptide in complete Freunds adjuvant on day 0. After 10 days, draining lymph node cells (6×10^5 per well) were cultured in X-Vivo 15 medium supplemented with 5×10^−5M 2-mercaptoethanol and […] L-glutamine with or without antigen for 72 hours. Cultures were pulsed for the final 16 hours with 0.5 μCi ^3H.thymidine and incorporation measured using a liquid scintillation counter. Results are expressed as means counts per minute for triplicate cultures.

[6] = tested on: MHC class I or II molecule; conditions: cited from earlier work

DENPVVHFFKNIVTP [MBP 82-96]
apitope within MBP region 77-100 [1]: shown to act as apitopes

DYKSAHKGFKGVDAQ [MBP 133-147]
apitope within MBP region 125-148 [2]: shown to act as apitopes

ENPVVHFFKNIVTPR [MBP 83-97]
apitope within MBP region 77-100 [1]: shown to act as apitopes

H-Ala-Ser-Asp-Tyr-Lys-Ser-Ala-His-Lys-Gly-Phe-Lys-Gly-Val-Asp-NH2 (H-ASDYKSAHKGFKGVD-NH2) [MBP 131-145]
apitope within MBP region 125-148 [2]: shown to act as apitopes | HLA-DQ6 binding [3]: HLA-DQ6 binding

H-Pro-Arg-His-Arg-Asp-Thr-Gly-Ile-Leu-Asp-Ser-Ile-Gly-Arg-Phe-NH2 (H-PRHRDTGILDSIGRF-NH2) [MBP 30-44]
presentation by fixed APC without further processing (apitope) [2]: shown to act as apitopes; also recorded: found to be apitopes; also recorded: can be presented by fixed APC without further processing | T cell clones (TCC) recognising the peptide [4]: 4 | HLA-DQ6 binding [3]: HLA-DQ6 binding | proliferative response versus Mgar control cells ([3]; T-cell clone MS 49:D3, highest peptide concentration): 1.5 fold

MBP 5-19: MBP 15-mer peptide a.a. 5-19 (AGKRELNAEKASTNS; UniProt P02686 5-19, looked up, fragment)
T cell clones (TCC) recognising the peptide [4]: responded

MBP 60-74: MBP 15-mer peptide 60-74 (QDTAVTDSKRTADPK; UniProt P02686 60-74, looked up, fragment)
T cell clones (TCC) recognising the peptide [4]: One

MBP 87-96: MBP 10-mer peptide 87-96, contains the epitope 89-94 (SRPHLIRLFS; UniProt P02686 87-96, looked up, fragment)
effect of peptide as tolerogen on recall responses after priming with 87-96 ([5]; 200 μg i.p. days -8, -6, -4, priming 87-96 in CFA day 0, lymph node cells day 10): suppressed recall responses to both 87-96 and 89-101 | in vitro recall response after priming with 87-96 ([5]; PBS pre-treated mice, lymph node cells): strong recall response

MBP 110-124: myelin basic protein peptide, residues 110-124 (RPSESDELQTIQEDS)
presentation by fixed APC without further processing (apitope) [2]: shown to act as apitopes; also recorded: found to be apitopes; also recorded: can be presented by fixed APC without further processing | T cell clones (TCC) recognising the peptide [4]: TCC specific

MBP 134-148: MBP peptide identified as apitope in WO 03/064464 (MASQKRPSQRHGSKY; UniProt P02686 134-148, looked up, fragment)
identified as apitope in WO 03/064464 [6]: apitopes

MBP 135-149: MBP peptide identified as apitope in WO 03/064464 (ASQKRPSQRHGSKYL; UniProt P02686 135-149, looked up, fragment)
identified as apitope in WO 03/064464 [6]: apitopes

MBP 136-150: MBP peptide identified as apitope in WO 03/064464 (SQKRPSQRHGSKYLA; UniProt P02686 136-150, looked up, fragment)
identified as apitope in WO 03/064464 [6]: apitopes

MBP 137-151: MBP peptide identified as apitope in WO 03/064464 (QKRPSQRHGSKYLAT; UniProt P02686 137-151, looked up, fragment)
identified as apitope in WO 03/064464 [6]: apitopes

MBP 138-152: MBP peptide identified as apitope in WO 03/064464 (KRPSQRHGSKYLATA; UniProt P02686 138-152, looked up, fragment)
identified as apitope in WO 03/064464 [6]: apitopes

MBP 140-149: MBP 10-mer peptide 140-149 (PSQRHGSKYL; UniProt P02686 140-149, looked up, fragment)
T cell clones (TCC) recognising the peptide [4]: specific

MBP 156-169: MBP a.a. 156-169 recognised by 2 clones; possibly the same as 156-170 (DHARHGFLPRHRDT; UniProt P02686 156-169, looked up, fragment)
T cell clones (TCC) recognising the peptide [4]: 2

MBP 156-170: myelin basic protein peptide, residues 156-170; epitope but not apitope (DHARHGFLPRHRDTG)
presentation by fixed APC without further processing (apitope) [2]: an epitope but not an apitope; also recorded: requires further processing for presentation to T cells

MPVVHFFKNIVTPRT [MBP 84-98]
apitope within MBP region 77-100 [1]: shown to act as apitopes

QDENPVVHFFKNIVT [MBP 81-95]
apitope within MBP region 77-100 [1]: shown to act as apitopes

RASDYKSAHKGFKGV [MBP 130-144]
presentation by fixed APC without further processing (apitope) [2]: shown to act as apitopes; also recorded: found to be apitopes; also recorded: can be presented by fixed APC without further processing | T cell clones (TCC) recognising the peptide [4]: responds

SDYKSAHKGFKGVDA [MBP 132-146]
apitope within MBP region 125-148 [2]: shown to act as apitopes

TQDENPVVHFFKNIV [MBP 80-94]
apitope within MBP region 77-100 [1]: shown to act as apitopes | presentation by fixed APC without further processing (apitope) [2]: found to be apitopes
